Experimental data as given in the METLIN SMRT retention time set (Domingo-Almenara et al. 2019).

Assay: gradient 5% acetonitrile 3 min, to 50% in 2 min, to 85% in 15 min, held 3 min, 100 µL/min
Conditions: column: Zorbax Extend-C18 2.1 x 50 mm; eluents: water / acetonitrile, 0.1% formic acid
In short: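 In both positive and negative ionization mode, a quadrupole time-of-flight mass spectrometer coupled to HPLC analyzed pure standards run in mixtures of ~100 molecules. The Zorbax Extend-C18 column (2.1 × 50 mm, 1.8 μm) was operated at 100 μL/min with water and acetonitrile, each containing 0.1% formic acid. The dead volume was 40 μL and the dwell volume 900 μL. Retention time came from adduct peaks that were computationally picked and individually inspected by hand.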

Q: For `Cc1cc(NC(=O)c2cc3c(=O)n4cccc(C)c4nc3s2)no1`, which RP-LC retention time is on record?
A: 792 s

Q: Which RP-LC retention time does the source give for `Fc1ccc(CN2CC(F)(F)C[C@H]2COc2cccnc2)c(Cl)c1` here?
A: 870 s

Q: With `Cc1ccc(CNC(=O)c2ccc3c(c2)N(C)C(=O)c2ccccc2O3)cc1` as the compound, how does the RP-LC retention time read?
A: 931 s

Q: Which RP-LC retention time does the source give for `Cc1ccc(C)c(NS(=O)(=O)c2cc3n(c2)CCN(CC(C)C)C3=O)c1` here?
A: 848 s

Q: With `O=C(Nc1c(-c2ccccc2)nc2ccccn12)c1cccc([N+](=O)[O-])c1` as the compound, how does the RP-LC retention time read?
A: 596 s

Q: For `Cc1ccc(C)c(C2=NC3(CCN(C(C)C)CC3)NC(c3cc(Cl)ccc3O)C2)c1` (stereo unspecified), which RP-LC retention time is on record?
A: 679 s

Q: Which RP-LC retention time does the source give for `CCOc1ccc(-n2nc(-c3nc(-c4ccncc4)no3)c3ccccc3c2=O)cc1` here?
A: 1090 s

Q: For `CCOc1ccccc1NC(=O)N1CCN(c2ccc(=O)n(-c3ccc(F)cc3)n2)CC1`, which RP-LC retention time is on record?
A: 875 s

Q: With `Cc1ccn2c(Nc3ccccc3C)c(-c3ccccc3O)nc2c1` as the compound, how does the RP-LC retention time read?
A: 701 s

Q: Which RP-LC retention time does the source give for `O=C(NCCCN1CCCC1=O)c1ccc2nc(CCc3ccccc3)oc2c1` here?
A: 754 s

Q: For `Cc1noc(-c2cc(=O)n(CC(=O)Nc3cc(Cl)ccc3C)c3ccccc23)n1`, which RP-LC retention time is on record?
A: 942 s

Q: For `COC(=O)C1=CN(c2ccc(C)cc2)c2ccccc2S1(=O)=O`, which RP-LC retention time is on record?
A: 862 s

Q: For `Cc1cnc(-c2ccccc2)n1C1CN(S(=O)(=O)c2cccc(F)c2)C1`, which RP-LC retention time is on record?
A: 670 s

Q: For `COc1ccc(C(=O)N2CCCC2c2nc(-c3ccccc3)n[nH]2)cc1` (stereo unspecified), which RP-LC retention time is on record?
A: 707 s

Q: With `COc1ccccc1N1CCN(CC(O)c2ccc3c(c2)OCO3)CC1` (stereo unspecified) as the compound, how does the RP-LC retention time read?
A: 631 s

Q: Which RP-LC retention time does the source give for `CCS(=O)(=O)c1ccc2c(c1)N(Cc1nc(-c3cccc(OC)c3)no1)C(=O)CO2` here?
A: 883 s

Q: For `Cc1noc(C)c1S(=O)(=O)N1CCC(Cc2nc(-c3cccnc3)n[nH]2)C1` (stereo unspecified), which RP-LC retention time is on record?
A: 624 s

Q: With `COc1ccc(CC(=O)NC(C(=O)Nc2nc3ccccc3[nH]2)C(C)C)c(Cl)c1` (stereo unspecified) as the compound, how does the RP-LC retention time read?
A: 744 s

Q: Which RP-LC retention time does the source give for `Cc1ccc(CC(=O)NC2CCN(c3cc(-c4cccs4)[nH]n3)C2)cc1` (stereo unspecified) here?
A: 732 s

Q: For `Cc1nn2c(CNC(=O)c3ccc(C)c(C)c3)c(C)nc2s1`, which RP-LC retention time is on record?
A: 650 s

Q: With `O=C(Nc1ccc(F)c(F)c1)C1CCCN(C(=O)Cc2cccc3ccccc23)C1` (stereo unspecified) as the compound, how does the RP-LC retention time read?
A: 1020 s

Q: With `O=C(NCc1ccco1)c1ccc(Nc2c(-c3ccccc3)nc3cnccn23)cc1` as the compound, how does the RP-LC retention time read?
A: 733 s

Q: Which RP-LC retention time does the source give for `O=c1ccc(-c2ccc(F)cc2)nn1Cc1nc(-c2cccc(Cl)c2)no1` here?
A: 1090 s

Q: With `CCCN(C)c1nccn2c(=O)n(CC(=O)Nc3cccc(C)c3C)nc12` as the compound, how does the RP-LC retention time read?
A: 684 s

Q: For `CCn1cc(CN2CCC(N3C(=O)C4(CCCCC4)C3c3ccccc3)CC2)cn1` (stereo unspecified), which RP-LC retention time is on record?
A: 681 s

Q: For `COc1ccc(C2Cn3cnc(C(=O)N4CCC(C(=O)NC5CCC(C)CC5)CC4)c3CO2)cc1` (stereo unspecified), which RP-LC retention time is on record?
A: 821 s

Q: For `Cc1ccc(NC(=O)N2C[C@@H](F)C[C@H]2C(=O)N2CCCCC2)cc1F`, which RP-LC retention time is on record?
A: 755 s

Q: Which RP-LC retention time does the source give for `CCc1ccc(NC(=O)Cn2c(N)nc(C)c(C)c2=O)cc1` here?
A: 596 s

Q: For `CCC(CC)C(=O)Nc1nc(-c2ccc3c(c2)N(C)C(=O)CO3)c(C)s1`, which RP-LC retention time is on record?
A: 962 s

Q: Which RP-LC retention time does the source give for `OC1(c2ccccn2)CCOC2(CCN(Cc3ccccc3OC(F)(F)F)CC2)C1` (stereo unspecified) here?
A: 601 s

Q: With `COc1cccc(-c2nc3cnccn3c2NCCC(=O)NC2CCN(C)CC2)c1` as the compound, how does the RP-LC retention time read?
A: 554 s

Q: Which RP-LC retention time does the source give for `CN(C)c1nc2ncn3c(=O)n(CC(=O)NCCc4ccc(Cl)cc4)nc3c2s1` here?
A: 706 s

Q: For `CCN(Cc1ccncc1)C(=O)C(CO)c1ccccc1` (stereo unspecified), which RP-LC retention time is on record?
A: 619 s

Q: For `O=C(c1ccc2ccccc2n1)N1CCN(c2cc(-c3cccnc3)[nH]n2)CC1`, which RP-LC retention time is on record?
A: 602 s

Q: With `O=C(C1CCC1)N1CCCC1c1nc(-c2cccc(Cl)c2)no1` (stereo unspecified) as the compound, how does the RP-LC retention time read?
A: 1060 s

Q: Which RP-LC retention time does the source give for `COc1ccc(-c2csc(Nc3ccccc3OC)n2)cc1` here?
A: 1130 s

Q: With `CCc1nc2cc(-c3noc(COc4ccccc4)n3)ccc2o1` as the compound, how does the RP-LC retention time read?
A: 1060 s

Q: With `O=C(CCn1cnc2cc(-c3noc(COc4ccc(Cl)cc4)n3)ccc21)N1CCCCCC1` as the compound, how does the RP-LC retention time read?
A: 884 s

Q: For `O=C(Nc1ncnc2sccc12)c1ccc([N+](=O)[O-])o1`, which RP-LC retention time is on record?
A: 664 s

Q: For `COc1cc(OC)c(NC(=O)Cn2nc3n(c2=O)CCCC3)cc1Cl`, which RP-LC retention time is on record?
A: 673 s

Q: With `COCCn1cc2c3c(cccc31)CN(C(=O)NCc1ccc(F)cc1)CC2` as the compound, how does the RP-LC retention time read?
A: 842 s

Q: Which RP-LC retention time does the source give for `CCN(CC)C(=O)c1ccc2nc(-c3ccc(C)cc3)cn2c1` here?
A: 649 s

Q: Which RP-LC retention time does the source give for `COc1ccc(-c2nc3ccccn3c2Nc2ccc(Cl)cc2)cc1` here?
A: 671 s

Q: For `O=C(c1ccccc1Cl)N1CCC(COCc2ccccc2)CC1`, which RP-LC retention time is on record?
A: 979 s

Q: With `CC(C)(C)c1ccc(-c2noc(Cn3c(=O)n(Cc4ccccc4)c(=O)c4sccc43)n2)cc1` as the compound, how does the RP-LC retention time read?
A: 1330 s

Q: For `NS(=O)(=O)c1ccc(NC(=O)C2CCCN(c3ncnc4c3nc3n4CCCCC3)C2)cc1` (stereo unspecified), which RP-LC retention time is on record?
A: 659 s

Q: For `CC1CCN(S(=O)(=O)c2cccc(-c3nnc(-c4ccc(F)cc4)o3)c2)CC1`, which RP-LC retention time is on record?
A: 1150 s

Q: With `COc1ccc(OC)c(NS(=O)(=O)c2cc(-c3nc(C)cs3)n(CC(=O)N3CCCC3)c2)c1` as the compound, how does the RP-LC retention time read?
A: 903 s

Q: Which RP-LC retention time does the source give for `O=C(NCCCN1CCCC1)C1c2ccccc2CC(=O)N1Cc1ccccc1` (stereo unspecified) here?
A: 604 s

Q: For `COc1ccc(NC(=O)c2cn3c(n2)CCCC3)c(OC)c1`, which RP-LC retention time is on record?
A: 610 s

Q: For `CCC(=O)N1CCN(c2nc3c(s2)CC(C(=O)O)CC3)CC1` (stereo unspecified), which RP-LC retention time is on record?
A: 578 s

Q: With `CN(C)C(=O)c1ccc2c(c1)nc(CN(C)C(=O)Nc1ccccc1Cl)n2C` as the compound, how does the RP-LC retention time read?
A: 611 s

Q: For `O=C(CC1CCCCC1)Nc1ccc(-c2nc(-c3ccccc3)co2)cc1`, which RP-LC retention time is on record?
A: 1270 s

Q: For `Cc1ccccc1Nc1c(-c2cccc(O)c2)nc2cccc(C)n12`, which RP-LC retention time is on record?
A: 678 s

Q: With `CC(C)(C)c1ccc(-c2nc(C3CC(=O)N(c4ccc(F)cc4)C3)no2)cc1` (stereo unspecified) as the compound, how does the RP-LC retention time read?
A: 1250 s

Q: For `CC(C)n1c(=O)sc2cc(S(=O)(=O)N3CCC(C(=O)NC4CCCCC4)CC3)ccc21`, which RP-LC retention time is on record?
A: 935 s

Q: With `CCCn1cc(C(=O)NC2CCCC2)c2nn(-c3ccccc3)c(=O)c-2c1` as the compound, how does the RP-LC retention time read?
A: 738 s

Q: For `CCC(=O)N1CCc2c([nH]c3ccccc23)C12C(=O)N(C)c1ccc(Br)cc12` (stereo unspecified), which RP-LC retention time is on record?
A: 939 s

Q: Which RP-LC retention time does the source give for `O=[N+]([O-])c1cccc(CSc2ccc3nnc(-c4cccs4)n3n2)c1` here?
A: 789 s

Q: Which RP-LC retention time does the source give for `CCc1cccc(C)c1NC(=O)C1CCN(S(C)(=O)=O)c2cc(C)ccc2O1` (stereo unspecified) here?
A: 671 s

Q: With `COc1cccc(CNC(=O)c2c(C)sc3ccn(CC(C)C)c(=O)c23)c1` as the compound, how does the RP-LC retention time read?
A: 960 s

Q: With `Cc1ccc(-c2nnc(SCc3noc(CCC(=O)Nc4nccs4)n3)o2)cc1` as the compound, how does the RP-LC retention time read?
A: 816 s

Q: For `Cn1ncc2c3ccccc3n(CC(=O)N3CCN(c4ncccn4)CC3)c2c1=O`, which RP-LC retention time is on record?
A: 700 s

Q: Which RP-LC retention time does the source give for `O=C(NCCc1ccc(N2CCCC2)cc1)C(=O)Nc1ccc2c(c1)OCCO2` here?
A: 844 s

Q: For `O=C(c1cccs1)N1CCCCC1c1nc(-c2ccncc2)no1` (stereo unspecified), which RP-LC retention time is on record?
A: 818 s

Q: Which RP-LC retention time does the source give for `O=C(Cc1cccs1)NCc1cc(-c2ccc(Cl)cc2)on1` here?
A: 858 s
